Results as given in US11885816B2, “Personalized medicine approach for treating cognitive loss” (University of North Texas Health Science Center at Fort …, priority 2013, dated 2024).
Entries after “also recorded” stand apart in the source; their conditions may differ. Read-outs that look alike come from different tables or passages of the source.

System: AD patients
Conditions: for disease severity (CDR Sum of Boxes [CDRSum]): treated; for change in MMSE scores over the 12 month period of the trial: treatment group
Description: In order to determine if the proinflammatory endophenotype predicted treatment response, baseline plasma samples were analyses from a previously conducted trial of the Alzheimer's Disease Cooperative Study (ADCS, Aisen et al 2003, JAMA).
Baseline plasma samples were assayed using enhanced chemiluminescence (ECL) for a range of inflammatory markers. The pro-inflammatory profile was generated using CRP and TNFα. Additional markers can be used to improve the already robust results shown herein. The frequency of the low, middle (referent group) and high ends of the pro-inflammatory profile are presented below.
Blood samples from a previously conducted clinical trial among AD patients was used. This trial was conducted by the Alzheimer's Disease Cooperative Study (ADCS, Aisen et al 2003, JAMA).
Baseline plasma samples were assayed using ECL for a range of inflammatory markers. The pro-inflammatory profile was generated using CRP and TNFα.

`COc1ccc2cc([C@H](C)C(=O)O)ccc2c1` [naproxen] was tested, and the “treatment comparison of non-selective with selective NSAIDs” value (high end of the proinflammatory endophenotype, comparator selective NSAIDs (celecoxib)) was “superior treatment”, the “disease severity (CDR Sum of Boxes [CDRSum])” value (high end of the pro-inflammatory profile, compared to untreated) was “declined less than those who were untreated” and the “disease severity (CDR Sum of Boxes [CDRSum])” value (low end of the pro-inflammatory profile, over 12 months, compared to any other group) was “progressed in disease severity more rapidly”. For the same compound, the “change in MMSE scores over the 12 month period of the trial” value (high end of the pro-inflammatory profile (group 3), compared to the low end and the referent group, listed as anti-inflammatory drug) was “stable over 12 months; also recorded: stable over 12 mo” and the “change in MMSE scores over the 12 month period of the trial” value (low end of the pro-inflammatory profile (group 1), compared to the referent (middle) group) was “declined significantly faster”.
